Experimental data from US20180312930A1, “METHOD FOR ANALYZING A SAMPLE TO DETECT THE PRESENCE OF SULPHITE-RESISTANT YEASTS OF THE BRETTANOMYCES BRUXELLENSIS SPECIES AND KIT FOR IMPLEMENTING SAME” (UNIVERSITE DE BORDEAUX, priority 2015, published 2018).

Columns and labels:
Experiment in all cases: capacity of strains to grow in the presence of sulphur dioxide
Assay type in all cases: cell-based
[1] = system: Brettanomyces bruxellensis strains of the beer triploid group; details: 14 days of culture, 8 strains tested
Method: (§1) The 33 strains of Brettanomyces bruxellensis are cultivated in a medium in the absence or the presence of different concentrations of sulphur dioxide SO2 in the culture medium (0 mg/L, 0.2 mg/L, 0.4 mg/L and 0.6 mg/L).
(§2) After 14 days of culture, the capacity of the strains to grow in the different media is evaluated.

[2] = system: Brettanomyces bruxellensis strains of the oenological triploid group; details: 14 days of culture, 8 strains tested
Method: as §1, §2

[3] = system: Brettanomyces bruxellensis strains of the oenological diploid group; details: 14 days of culture, 17 strains tested
Method: as §1, §2

[4] = 0.2 mg/L active SO2 in the culture medium
[5] = 0.4 mg/L active SO2 in the culture medium
[6] = 0.6 mg/L active SO2 in the culture medium

O=S=O [sulphur dioxide]
Number of strains with the capacity to grow [1, 4]: 3
Number of strains with the capacity to grow [1, 5]: 0
Number of strains with the capacity to grow [1, 6]: 0
Number of strains with the capacity to grow [2, 4]: 8
Number of strains with the capacity to grow [2, 5]: 8
Number of strains with the capacity to grow [2, 6]: 4
Number of strains with the capacity to grow [3, 4]: 6
Number of strains with the capacity to grow [3, 5]: 1
Number of strains with the capacity to grow [3, 6]: 0
